Experimental data reported in ChEMBL document CHEMBL5113392, “Novel hybrid pyrrolidinedione-thiazolidinones as potential anticancer agents: Synthesis and biological evaluation” (Eur J Med Chem, 2022).
Active and inactive are the calls of the source. No cut-off for these calls is given here.

Tests used:
SK-MEL-28 [1] = assay: Anticancer activity against human SK-MEL-28 cells assessed as total growth inhibition incubated for 48 hrs by SRB assay; assay type: functional
SK-MEL-28 [2] = assay: Anticancer activity against human SK-MEL-28 cells assessed as lethality incubated for 48 hrs by SRB assay; assay type: functional; settings: read-out: LC50 (the source's name)
RXF 393 = assay: Anticancer activity against human RXF 393 cells assessed as lethality incubated for 48 hrs by SRB assay; assay type: functional; settings: read-out: LC50 (the source's name)
T47D [3] = assay: Anticancer activity against human T47D cells assessed as lethality incubated for 48 hrs by SRB assay; assay type: functional; settings: read-out: LC50 (the source's name)
LOX IMVI = assay: Anticancer activity against human LOX IMVI cells assessed as inhibition of cell growth at 10 uM incubated for 48 hrs by SRB assay; values are per cent of control
[4] = Cytotoxicity against human HaCaT cells assessed as cell growth inhibition incubated for 72 hrs by MTT assay; assay type: toxicity, cell-based
RPMI-8226 [5] = assay: Anticancer activity against human RPMI-8226 cells assessed as lethality incubated for 48 hrs by SRB assay; assay type: functional; settings: read-out: LC50 (the source's name)
OVCAR-4 [6] = assay: Anticancer activity against human OVCAR-4 cells assessed as lethality incubated for 48 hrs by SRB assay; assay type: functional; settings: read-out: LC50 (the source's name)
IGROV-1 = assay: Anticancer activity against human IGROV-1 cells assessed as growth inhibition incubated for 48 hrs by SRB assay; assay type: functional
NCI-H226 = assay: Anticancer activity against human NCI-H226 cells assessed as total growth inhibition incubated for 48 hrs by SRB assay; assay type: functional
RPMI-8226 [7] = assay: Anticancer activity against human RPMI-8226 cells assessed as growth inhibition incubated for 48 hrs by SRB assay; assay type: functional
HCT-15 [8] = assay: Anticancer activity against human HCT-15 cells assessed as total growth inhibition incubated for 48 hrs by SRB assay; assay type: functional
HCT-15 [9] = assay: Anticancer activity against human HCT-15 cells assessed as lethality incubated for 48 hrs by SRB assay; assay type: functional; settings: read-out: LC50 (the source's name)
K562 = assay: Anticancer activity against human K562 cells assessed as growth inhibition incubated for 48 hrs by SRB assay; assay type: functional
[10] = Anticancer activity against human HCT116-p53-null cells assessed as cell growth inhibition incubated for 72 hrs by MTT assay; assay type: functional
HCC 2998 = assay: Anticancer activity against human HCC 2998 cells assessed as lethality incubated for 48 hrs by SRB assay; assay type: functional; settings: read-out: LC50 (the source's name)
EKVX = assay: Anticancer activity against human EKVX cells assessed as growth inhibition incubated for 48 hrs by SRB assay; assay type: functional
PC-3 [11] = assay: Anticancer activity against human PC-3 cells assessed as total growth inhibition incubated for 48 hrs by SRB assay; assay type: functional
[12] = Selectivity index, ratio of GI50 for human HaCaT cells to GI50 for human HCT-116 cells; assay type: toxicity; settings: HaCaT cells versus HCT-116 cells, read-out: RatioGI50
MDA-MB-231 = assay: Anticancer activity against human MDA-MB-231 cells assessed as cell growth inhibition incubated for 72 hrs by MTT assay; assay type: functional
OVCAR-5 [13] = assay: Anticancer activity against human OVCAR-5 cells assessed as total growth inhibition incubated for 48 hrs by SRB assay; assay type: functional
HOP-62 = assay: Anticancer activity against human HOP-62 cells assessed as total growth inhibition incubated for 48 hrs by SRB assay; assay type: functional
Jurkat = assay: Induction of morphological changes in human Jurkat cells assessed as chromatin fragmentation incubated for 24 hrs by Hoechst 33258 and propidium iodide staining based fluorescence microscopy; assay type: functional, cell-based
NCI/ADR-RES = assay: Anticancer activity against human NCI/ADR-RES cells assessed as lethality incubated for 48 hrs by SRB assay; assay type: functional; settings: read-out: LC50 (the source's name)
KB 3-1 = assay: Anticancer activity against human KB 3-1 cells assessed as cell growth inhibition incubated for 72 hrs by MTT assay; assay type: functional
Hs-578T = assay: Anticancer activity against human Hs-578T cells assessed as total growth inhibition incubated for 48 hrs by SRB assay; assay type: functional
OVCAR-4 [14] = assay: Anticancer activity against human OVCAR-4 cells assessed as total growth inhibition incubated for 48 hrs by SRB assay; assay type: functional
COLO 205 = assay: Anticancer activity against human COLO 205 cells assessed as lethality incubated for 48 hrs by SRB assay; assay type: functional; settings: read-out: LC50 (the source's name)
NCI-H460 [15] = assay: Anticancer activity against human NCI-H460 cells assessed as total growth inhibition incubated for 48 hrs by SRB assay; assay type: functional
MDA-MB-435 = assay: Anticancer activity against human MDA-MB-435 cells assessed as total growth inhibition incubated for 48 hrs by SRB assay; assay type: functional
Lymphocyte = assay: Induction of morphological changes in mitogen activated human peripheral blood lymphocytes assessed as increase in number of single cells incubated for 24 hrs by Hoechst 33258 and propidium iodide staining based fluorescence microscopy; assay type: toxicity, cell-based
NCI-H322M = assay: Anticancer activity against human NCI-H322M cells assessed as total growth inhibition incubated for 48 hrs by SRB assay; assay type: functional
PC-3 [16] = assay: Anticancer activity against human PC-3 cells assessed as lethality incubated for 48 hrs by SRB assay; assay type: functional; settings: read-out: LC50 (the source's name)
U-251 = assay: Anticancer activity against human U-251 cells assessed as total growth inhibition incubated for 48 hrs by SRB assay; assay type: functional
HT-29 [17] = assay: Anticancer activity against human HT-29 cells assessed as growth inhibition incubated for 48 hrs by SRB assay; assay type: functional
M14 [18] = assay: Anticancer activity against human M14 cells assessed as total growth inhibition incubated for 48 hrs by SRB assay; assay type: functional
M14 [19] = assay: Anticancer activity against human M14 cells assessed as lethality incubated for 48 hrs by SRB assay; assay type: functional; settings: read-out: LC50 (the source's name)
NCI-H460 [20] = assay: Anticancer activity against human NCI-H460 cells assessed as growth inhibition incubated for 48 hrs by SRB assay; assay type: functional
CCRF-CEM = assay: Anticancer activity against human CCRF-CEM cells assessed as growth inhibition incubated for 48 hrs by SRB assay; assay type: functional
TK-10 = assay: Anticancer activity against human TK-10 cells assessed as total growth inhibition incubated for 48 hrs by SRB assay; assay type: functional
MOLT-4 = assay: Anticancer activity against human MOLT-4 cells assessed as total growth inhibition incubated for 48 hrs by SRB assay; assay type: functional
[21] = Cytotoxicity against mitogen activated human peripheral blood lymphocytes assessed as cell growth inhibition incubated for 24 hrs by MTT assay; assay type: toxicity, cell-based, Lymphocyte
[22] = Cytotoxicity against mitogen activated human peripheral blood lymphocytes assessed as cell growth inhibition incubated for 48 hrs by MTT assay; assay type: toxicity, cell-based, Lymphocyte
UACC-62 [23] = assay: Anticancer activity against human UACC-62 cells assessed as total growth inhibition incubated for 48 hrs by SRB assay; assay type: functional
OVCAR-5 [24] = assay: Anticancer activity against human OVCAR-5 cells assessed as growth inhibition incubated for 48 hrs by SRB assay; assay type: functional
UACC-62 [25] = assay: Anticancer activity against human UACC-62 cells assessed as lethality incubated for 48 hrs by SRB assay; assay type: functional; settings: read-out: LC50 (the source's name)
[26] = Selectivity index, ratio of GI50 for human HaCaT cells to GI50 for human HeLa cells; assay type: toxicity; settings: HaCaT cells versus HeLa cells, read-out: RatioGI50
HT-29 [27] = assay: Anticancer activity against human HT-29 cells assessed as total growth inhibition incubated for 48 hrs by SRB assay; assay type: functional
T47D [28] = assay: Anticancer activity against human T47D cells assessed as total growth inhibition incubated for 48 hrs by SRB assay; assay type: functional

`O=C1CC(N2C(=O)/C(=C/C(Cl)=C/c3ccc([N+](=O)[O-])cc3)SC2=S)C(=O)N1c1ccc(O)cc1` (stereo not drawn) gave a TGI (SK-MEL-28 [1]) of 4.2 µM, a CC50 (SK-MEL-28 [2]) of 9.05 µM and a CC50 (RXF 393) of 6.76 µM. It also gave a CC50 (T47D [3]) greater than 100 µM, a growth percent at 10 µM (LOX IMVI) of -83.7% and a GI50 at 72 h [4] of 73.6 µM. For the same molecule, the CC50 (RPMI-8226 [5]) was greater than 100 µM, the CC50 (OVCAR-4 [6]) was 41.9 µM and the GI50 (IGROV-1) was 1.2 µM. The TGI (NCI-H226) was 6.82 µM, the GI50 (RPMI-8226 [7]) was 0.295 µM and the TGI (HCT-15 [8]) was 1.95 µM. It also gave a CC50 (HCT-15 [9]) of 6.09 µM, a GI50 (K562) of 0.603 µM and a GI50 [10] of 5.65 µM. For the same molecule, the CC50 (HCC 2998) was 5.76 µM, the GI50 (EKVX) was 3.25 µM and the TGI (PC-3 [11]) was 2.87 µM. For the same molecule, the selectivity ratio [12] was 16.3, the GI50 (MDA-MB-231) was 6.2 µM and the TGI (OVCAR-5 [13]) was 3.7 µM. For the same molecule, the TGI (HOP-62) was 6.63 µM, the Activity (Jurkat) was “Active” and the CC50 (NCI/ADR-RES) was greater than 100 µM. The GI50 (KB 3-1) was 8 µM, the TGI (Hs-578T) was 12.6 µM and the TGI (OVCAR-4 [14]) was 17.3 µM. For the same molecule, the CC50 (COLO 205) was 56 µM, the TGI (NCI-H460 [15]) was 6.75 µM and the TGI (MDA-MB-435) was 4.34 µM. The Activity (Lymphocyte) was “Toxic”, the TGI (NCI-H322M) was 6.67 µM and the CC50 (PC-3 [16]) was 8.6 µM. For the same molecule, the TGI (U-251) was 2.21 µM, the GI50 (HT-29 [17]) was 0.847 µM and the TGI (M14 [18]) was 3.31 µM. It also gave a CC50 (M14 [19]) of 7.51 µM, a GI50 (NCI-H460 [20]) of 2.55 µM and a GI50 (CCRF-CEM) of 0.385 µM. For the same molecule, the TGI (TK-10) was 3.79 µM, the TGI (MOLT-4) was 15.3 µM and the GI50 at 24 h [21] was 67.1 µM. It also gave a GI50 at 48 h [22] of 51.2 µM, a TGI (UACC-62 [23]) of 3.38 µM and a GI50 (OVCAR-5 [24]) of 1.91 µM. The CC50 (UACC-62 [25]) was 6.86 µM, the selectivity ratio [26] was 12 and the TGI (HT-29 [27]) was 8.78 µM. It also gave a TGI (T47D [28]) of 15.8 µM.

In the case of `O=C1CC(N2C(=O)/C(=C/C(Cl)=C/c3ccc([N+](=O)[O-])cc3)SC2=S)C(=O)N1c1ccc(Cl)cc1` (stereo not drawn), the TGI (SK-MEL-28 [1]) is reported as 4.02 µM, the CC50 (SK-MEL-28 [2]) is reported as 9.41 µM and the CC50 (RXF 393) is reported as 5.86 µM. For the same molecule, the CC50 (T47D [3]) was greater than 100 µM, the growth percent at 10 µM (LOX IMVI) was -71.7% and the GI50 at 72 h [4] was greater than 100 µM. It also gave a CC50 (RPMI-8226 [5]) of 71 µM, a CC50 (OVCAR-4 [6]) greater than 100 µM and a GI50 (IGROV-1) of 1.03 µM. For the same molecule, the TGI (NCI-H226) was 4.65 µM, the GI50 (RPMI-8226 [7]) was 0.303 µM and the TGI (HCT-15 [8]) was 8.2 µM. It also gave a CC50 (HCT-15 [9]) of 77.4 µM, a GI50 (K562) of 0.692 µM and a GI50 [10] of 6 µM. It also gave a CC50 (HCC 2998) of 5.76 µM, a GI50 (EKVX) of 3.11 µM and a TGI (PC-3 [11]) of 4.15 µM. It also gave a selectivity ratio [12] of 10.9, a GI50 (MDA-MB-231) of 6.45 µM and a TGI (OVCAR-5 [13]) of 4.46 µM. The TGI (HOP-62) was 5.5 µM, the Activity (Jurkat) was “Active” and the CC50 (NCI/ADR-RES) was greater than 100 µM. It also gave a GI50 (KB 3-1) of 70.3 µM, a TGI (Hs-578T) greater than 100 µM and a TGI (OVCAR-4 [14]) greater than 100 µM. For the same molecule, the CC50 (COLO 205) was greater than 100 µM, the TGI (NCI-H460 [15]) was greater than 100 µM and the TGI (MDA-MB-435) was 3.39 µM. For the same molecule, the Activity (Lymphocyte) was “Toxic”, the TGI (NCI-H322M) was greater than 100 µM and the CC50 (PC-3 [16]) was greater than 100 µM. For the same molecule, the TGI (U-251) was 2.47 µM, the GI50 (HT-29 [17]) was 0.632 µM and the TGI (M14 [18]) was 5.06 µM. For the same molecule, the CC50 (M14 [19]) was greater than 100 µM, the GI50 (NCI-H460 [20]) was 3.3 µM and the GI50 (CCRF-CEM) was 0.486 µM. For the same molecule, the TGI (TK-10) was 8.63 µM, the TGI (MOLT-4) was 13.4 µM and the GI50 at 24 h [21] was 36.8 µM. For the same molecule, the GI50 at 48 h [22] was 28.9 µM, the TGI (UACC-62 [23]) was 4.3 µM and the GI50 (OVCAR-5 [24]) was 2.04 µM. The CC50 (UACC-62 [25]) was 12 µM, the selectivity ratio [26] was 15 and the TGI (HT-29 [27]) was 4.6 µM. For the same molecule, the TGI (T47D [28]) was 6.34 µM.
